# Test results as given in patent publication US8664236B2, “1H-pyrrolo[2,3 b]-pyridine derivatives” (Merck Patent GmbH, priority 2010, dated 2014).
# Like-named read-outs stand apart in the source and are kept apart here.
# Experiments:
# PDK1 (His6-PDK1(Δ1-50)) = PDK1 (His6-PDK1(Δ1-50)) (Homo sapiens (Human), UniProt O15530); assay: Test for the inhibition of PDK1 (enzymatic, flashplate, 33P-ATP); format: biochemical
# Method: 4. Test for the Inhibition of PDK1
# The experimental batches are carried out in a flashplate system with 384 wells/microtitration plate.
# The test substances are employed in corresponding concentrations (if desired in a dilution series). The control is carried out without test substance. The reaction is stopped using standard methods and washed. The activity of the kinase is measured via the incorporated radioactivity in top count. In order to determine the non-specific kinase reaction (blank value), the experimental batches are carried out in the presence of 100 nM staurosporine.
# The radioactivity (decompositions per minute) of the blank value (no use of test substance in the presence of staurosporine) is subtracted from all other radioactivity values. The controls (kinase activity without test substance) are set equal to 100 percent and all other radioactivity values (after subtracting the blank value) are expressed set in relation thereto (for example in % of the control).
# [1] = molecular target: PDK1 kinase in PC3 cells (PKB phosphorylation at Thr 308) (Homo sapiens (Human), UniProt O15530); assay: Cellular testing of PDK1 kinase inhibitors in PC3 cells (Luminex, phospho-T308-PKB); format: cell-based; details: PKB phosphorylation at Thr 308 in PC3 cells; read-out: cellular IC50
# Chain of PDK1 kinase in PC3 cells (PKB phosphorylation at Thr 308) (O15530 whole entry): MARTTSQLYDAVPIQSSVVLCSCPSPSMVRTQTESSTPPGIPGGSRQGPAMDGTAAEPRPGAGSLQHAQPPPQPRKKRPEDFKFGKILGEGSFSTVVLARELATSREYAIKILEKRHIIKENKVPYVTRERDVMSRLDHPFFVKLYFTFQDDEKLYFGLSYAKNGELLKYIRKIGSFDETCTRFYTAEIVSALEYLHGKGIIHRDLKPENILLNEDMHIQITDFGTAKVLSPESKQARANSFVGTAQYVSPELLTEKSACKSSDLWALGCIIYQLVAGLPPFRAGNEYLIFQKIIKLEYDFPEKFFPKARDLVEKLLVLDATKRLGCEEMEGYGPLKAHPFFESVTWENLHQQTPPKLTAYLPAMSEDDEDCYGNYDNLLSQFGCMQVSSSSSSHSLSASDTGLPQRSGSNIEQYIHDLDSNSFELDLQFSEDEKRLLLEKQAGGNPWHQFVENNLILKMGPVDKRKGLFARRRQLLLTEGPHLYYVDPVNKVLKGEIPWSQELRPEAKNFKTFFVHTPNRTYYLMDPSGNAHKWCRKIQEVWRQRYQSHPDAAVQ
# Method: Method for the Cellular Testing of PDK1 Kinase Inhibitors in PC3 Cells
# The cellular assay for the determination of the PDK1 kinase activity is carried out as a Luminex assay in the 96-well format. PC3 cells are sown at 20,000 cells per well in 100 μl of medium (45% of […]/45% of Ham's F12/10% of FCS) and incubated on the following day for 30 min with a serial dilution of the test substance (7 concentrations) under serum-free conditions. The cells are subsequently lysed using 90 μl of lysis buffer (20 mM tris/HCl pH 8.0, 150 mM NaCl, 1% of NP40, 10% of glycerol, 1% of phosphatase inhibitor I, 1% of phosphatase inhibitor II, 0.1% of protease inhibitor cocktail III, 0.01% of benzonase) per well, and the lysates are separated off from insoluble cell constituents by means of centrifugation through a 96-well filter plate (0.65 μm). The lysates are incubated overnight at 4° C. with shaking with Luminex beads to which an anti-total PKB antibody is coupled. The detection is carried out on the following day by addition of a phospho-T308-PKB antibody and a species-specific […] secondary antibody. The detection of phospho-T308-PKB is carried out by measurement in a Luminex100 instrument by determination of 100 events per cavity in a measurement time of 60 sec. […] The values of the batches treated with test substance are calculated therefrom as percentage of control, and IC50 values are determined by means of RS1.
# [2] = enzymatic PDK1 inhibition assay, read-out: enzymatic IC50
# Chain of PDK1 (His6-PDK1(Δ1-50)) (O15530 51-556): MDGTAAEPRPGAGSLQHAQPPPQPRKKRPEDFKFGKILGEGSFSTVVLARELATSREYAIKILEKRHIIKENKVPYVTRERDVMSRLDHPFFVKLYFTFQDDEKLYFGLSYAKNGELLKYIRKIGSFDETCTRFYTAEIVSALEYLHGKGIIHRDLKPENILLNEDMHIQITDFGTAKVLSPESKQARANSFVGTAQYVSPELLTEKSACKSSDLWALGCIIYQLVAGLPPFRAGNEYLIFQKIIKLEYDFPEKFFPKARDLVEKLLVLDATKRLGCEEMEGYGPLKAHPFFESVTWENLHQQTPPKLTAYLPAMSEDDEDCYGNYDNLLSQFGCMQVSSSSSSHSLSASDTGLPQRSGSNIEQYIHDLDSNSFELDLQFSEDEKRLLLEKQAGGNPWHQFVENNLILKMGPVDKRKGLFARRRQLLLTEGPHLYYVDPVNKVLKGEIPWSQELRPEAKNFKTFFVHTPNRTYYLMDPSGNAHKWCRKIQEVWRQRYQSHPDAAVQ
Structure (SMILES),IC50 (PDK1 (His6-PDK1(Δ1-50)); [2]) [nM],IC50 [1] [nM],IC50 (PDK1 (His6-PDK1(Δ1-50))) [nM]
"CN(c1cccc(F)c1)c1cc(-c2c[nH]c3ncc(-c4cnn(C)c4)cc23)nc(N)n1 [A1, N4-(3-Fluorophenyl)-N4-methyl-6-[5-(1-methyl-1H-pyrazol-4-yl)-1H-pyrrolo[2,3-b]pyridin-3-yl]pyrimidine-2,4-diamine]",34,280,
"Cn1cc(-c2cnc3[nH]cc(-c4cc(C(C)(C)c5ccccc5)nc(N)n4)c3c2)cn1 [A2, 4-(1-Methyl-1-phenylethyl)-6-[5-(1-methyl-1H-pyrazol-4-yl)-1H-pyrrolo[2,3-b]pyridin-3-yl]pyrimidin-2-ylamine]",65,140,
"Cn1cc(-c2cnc3[nH]cc(-c4cc(C5(c6ccccc6)CC5)nc(N)n4)c3c2)cn1 [A3, 4-[5-(1-Methyl-1H-pyrazol-4-yl)-1H-pyrrolo[2,3-b]pyridin-3-yl]-6-(1-phenylcyclopropyl)pyrimidin-2-ylamine]",59.5,110,
"COc1ccc(N(C[C@H](O)CO)c2cc(-c3c[nH]c4ncc(-c5cnn(C)c5)cc34)nc(N)n2)cc1 [A5, (S)-3-[{2-Amino-6-[5-(1-methyl-1H-pyrazol-4-yl)-1H-pyrrolo-[2,3-b]pyridin-3-yl]pyrimidin-4-yl}-(4-methoxyphenyl)amino]-propane-1,2-diol]",24,6800,
"Cn1cc(-c2cnc3[nH]cc(-c4cc(C5(c6ccc(Cl)cc6)CCCC5)nc(N)n4)c3c2)cn1 [A7, 4-[1-(4-Chlorophenyl)cyclopentyl]-6-[5-(1-methyl-1H-pyrazol-4-yl)-1H-pyrrolo[2,3-b]pyridin-3-yl]pyrimidin-2-ylamine]",870,1400,
"CN(c1cccc(Cl)c1)c1cc(-c2c[nH]c3ncc(-c4cnn(C)c4)cc23)nc(N)n1 [A8, N4-(3-Chlorophenyl)-N4-methyl-6-[5-(1-methyl-1H-pyrazol-4-yl)-1H-pyrrolo[2,3-b]pyridin-3-yl]pyrimidine-2,4-diamine]",51,200,
"CN(c1cc(-c2c[nH]c3ncc(-c4cnn(C)c4)cc23)nc(N)n1)c1ccccc1F [A9, N4-(2-Fluorophenyl)-N4-methyl-6-[5-(1-methyl-1H-pyrazol-4-yl)-1H-pyrrolo[2,3-b]pyridin-3-yl]pyrimidine-2,4-diamine]",9.7,27,
"CN(c1cc(-c2c[nH]c3ncc(-c4cnn(C)c4)cc23)nc(N)n1)c1ccccc1Cl [A10, N4-(2-Chlorophenyl)-N4-methyl-6-[5-(1-methyl-1H-pyrazol-4-yl)-1H-pyrrolo[2,3-b]pyridin-3-yl]pyrimidine-2,4-diamine]",7.6,26,
"CN(c1ccccc1)c1cc(-c2c[nH]c3ncc(-c4cnn(C)c4)cc23)nc(N)n1 [A11, N4-Methyl-6-[5-(1-methyl-1H-pyrazol-4-yl)-1H-pyrrolo[2,3-b]-pyridin-3-yl]-N4-phenylpyrimidine-2,4-diamine]",16.5,800,
"CCN(c1ccccc1)c1cc(-c2c[nH]c3ncc(-c4cnn(C)c4)cc23)nc(N)n1 [A12, N4-Ethyl-6-[5-(1-methyl-1H-pyrazol-4-yl)-1H-pyrrolo[2,3-b]-pyridin-3-yl]-N4-phenylpyrimidine-2,4-diamine]",12,690,
"CCN(c1ccc(Cl)cc1)c1cc(-c2c[nH]c3ncc(-c4cnn(C)c4)cc23)nc(N)n1 [A13, N4-(4-Chlorophenyl)-N4-ethyl-6-[5-(1-methyl-1H-pyrazol-4-yl)-1H-pyrrolo[2,3-b]pyridin-3-yl]pyrimidine-2,4-diamine]",46,120,
"CCN(Cc1ccccc1)c1cc(-c2c[nH]c3ncc(-c4cnn(C)c4)cc23)nc(N)n1 [A14, N4-Benzyl-N4-ethyl-6-[5-(1-methyl-1H-pyrazol-4-yl)-1H-pyrrolo[2,3-b]pyridin-3-yl]pyrimidine-2,4-diamine]",51,530,
"CC(C)n1cc(-c2cnc3[nH]cc(-c4cc(N(CCO)c5ccccc5Cl)nc(N)n4)c3c2)cn1 [A15, 2-[{2-Amino-6-[5-(1-isopropyl-1H-pyrazol-4-yl)-1H-pyrrolo[2,3-b]pyridin-3-yl]pyrimidin-4-yl)-(2-chlorophenyl)amino]-ethanol]",,2100,
"Cn1cc(-c2cnc3[nH]cc(-c4cc(N(CCO)c5ccccc5Cl)nc(N)n4)c3c2)cn1 [A16, 2-[{2-Amino-6-[5-(1-methyl-1H-pyrazol-4-yl)-1H-pyrrolo[2,3-b]-pyridin-3-yl]pyrimidin-4-yl}-(2-chlorophenyl)amino]ethanol]",4.7,2.6,
"Cn1cc(-c2cnc3[nH]cc(-c4cc(N5CCc6cc(F)ccc65)nc(N)n4)c3c2)cn1 [A17, 4-(5-Fluoro-2,3-dihydroindol-1-yl)-6-[5-(1-methyl-1H-pyrazol-4-yl)-1H-pyrrolo[2,3-b]pyridin-3-yl]pyrimidin-2-ylamine]",200,> 10000,
"CC(C)n1cc(-c2cnc3[nH]cc(-c4cc(N5CCc6cc(F)ccc65)nc(N)n4)c3c2)cn1 [A18, 4-(5-Fluoro-2,3-dihydroindol-1-yl)-6-[5-(1-isopropyl-1H-pyrazol-4-yl)-1H-pyrrolo[2,3-b]pyridin-3-yl]pyrimidin-2-ylamine]",5900,> 10000,
"CC(C)n1cc(-c2cnc3[nH]cc(-c4cc(N(C)c5ccccc5Cl)nc(N)n4)c3c2)cn1 [A19, N4-(2-Chlorophenyl)-6-[5-(1-isopropyl-1H-pyrazol-4-yl)-1H-pyrrolo[2,3-b]pyridin-3-yl]-N4-methylpyrimidine-2,4-diamine]",30,400,
"CCN(c1cc(-c2c[nH]c3ncc(-c4cnn(C)c4)cc23)nc(N)n1)c1nncs1 [A20, N4-Ethyl-6-[5-(1-methyl-1H-pyrazol-4-yl)-1H-pyrrolo[2,3-b]pyridin-3-yl]-N4-1,3,4-thiadiazol-2-ylpyrimidine-2,4-diamine]",155,> 10000,
"COCC(O)CN(c1ccccc1)c1cc(-c2c[nH]c3ncc(-c4cnn(C)c4)cc23)nc(N)n1 (stereo not shown) [A21, 1-({2-Amino-6-[5-(1-methyl-1H-pyrazol-4-yl)-1H-pyrrolo[2,3-b]-pyridin-3-yl]pyrimidin-4-yl}phenylamino)-3-methoxypropan-2-ol]",11,520,
"Cn1cc(-c2cnc3[nH]cc(-c4cc(N(CC(O)CO)c5cccc(C#N)c5)nc(N)n4)c3c2)cn1 (stereo not shown) [A22, 3-[{2-Amino-6-[5-(1-methyl-1H-pyrazol-4-yl)-1H-pyrrolo[2,3-b]-pyridin-3-yl]pyrimidin-4-yl}-(2,3-dihydroxypropyl)amino]-benzonitrile]",90,> 10000,
"Cn1cc(-c2cnc3[nH]cc(-c4cc(N(CCC(=O)O)c5ccccc5Cl)nc(N)n4)c3c2)cn1 [A23, 3-[{2-Amino-6-[5-(1-methyl-1H-pyrazol-4-yl)-1H-pyrrolo[2,3-b]-pyridin-3-yl]pyrimidin-4-yl)-(2-chlorophenyl)amino]propionic acid]",4.8,> 10000,
"COC(=O)CN(c1ccc(Cl)cc1)c1cc(-c2c[nH]c3ncc(-c4cnn(C)c4)cc23)nc(N)n1 [A24, Methyl [{2-amino-6-[5-(1-methyl-1H-pyrazol-4-yl)-1H-pyrrolo-[2,3-b]pyridin-3-yl]pyrimidin-4-yl)-(4-chlorophenyl)amino]acetate]",69,470,
"Cn1cc(-c2cnc3[nH]cc(-c4cc(N(CCO)c5ccc(F)cc5F)nc(N)n4)c3c2)cn1 [A25, 2-[{2-Amino-6-[5-(1-methyl-1H-pyrazol-4-yl)-1H-pyrrolo[2,3-b]-pyridin-3-yl]pyrimidin-4-yl)-(2,4-difluorophenyl)amino]ethanol]",6.5,35,
"Cn1cc(-c2cnc3[nH]cc(-c4cc(N(CCO)c5ccccc5F)nc(N)n4)c3c2)cn1 [A26, 2-[{2-Amino-6-[5-(1-methyl-1H-pyrazol-4-yl)-1H-pyrrolo[2,3-b]-pyridin-3-yl]pyrimidin-4-yl)-(2-fluorophenyl)amino]ethanol]",5,23,
"Cn1cc(-c2cnc3[nH]cc(-c4cc(N(CCC#N)c5ccccc5Cl)nc(N)n4)c3c2)cn1 [A30, 3-[{2-amino-6-[5-(1-methyl-1H-pyrazol-4-yl)-1H-pyrrolo[2,3-b]-pyridin-3-yl]pyrimidin-4-yl}-(2-chlorophenyl)amino]propionitrile]",,,9.1
CN(c1cccc(F)c1)c1cc(-c2c[nH]c3ncc(-c4cnn(C)c4)cc23)ncn1 [A30a],,660,
